Test results reported in PMC7318034, “Safety, Pharmacokinetics, and Drug-Drug Interaction Potential of Intravenous Durlobactam, a β-Lactamase Inhibitor, in Healthy Subjects” (Antimicrobial Agents and Chemotherapy, 2020).

Assay: Urine PK (urinary excretion, renal clearance) in healthy subjects
Conditions: for CL renal: human, urine, intravenous, CLr
[1] = part C cohort 13, Day 5 (DUR 1 g + sulbactam 1 g)
[2] = part A cohort 6, single 4 g, n=4
[3] = part A cohort 7, single 8 g, n=5
[4] = part A cohort 8 (elderly), single 1 g, n=5
[5] = part B cohort 9, first 48 hours, dose over 48 hours 2.00 g (8 doses)
[6] = part B cohort 9, following the final dose on Day 8, 0.250 g
[7] = part B cohort 10, first 48 hours, dose over 48 hours 4.00 g (8 doses)
[8] = part B cohort 10, following the final dose on Day 8, 0.500 g
[9] = part B cohort 11, first 48 hours, dose over 48 hours 8.00 g (8 doses)
[10] = part B cohort 11, following the final dose on Day 8, 1.000 g
[11] = part B cohort 12, first 48 hours, dose over 48 hours 16.00 g (8 doses)
[12] = part B cohort 12, following the final dose on Day 8, 2.000 g
[13] = part C cohort 13, Day 1 (DUR 1 g alone)
[14] = part C cohort 14, Day 1 (DUR 1 g alone), mean
[15] = part D cohort 15, Day 1, DUR + SUL + IMI-CIL q6h, mean, n=10
[16] = part D cohort 15, Day 11, DUR + SUL + IMI-CIL q6h, mean, n=10

Structure (SMILES): CC1=C[C@@H]2CN(C(=O)N2OS(=O)(=O)O)[C@@H]1C(N)=O [DUR, Durlobactam]
- CL renal (0.5 g, median, part B cohort 10, first 48 hours, dose over 48 hours 4.00 g (8 doses)): 291 mL/min
- CL renal (0.5 g, median, part B cohort 10, following the final dose on Day 8, 0.500 g): 96.2 mL/min
- CL renal (1 g, mean, part A cohort 8 (elderly), single 1 g, n=5): 55.4 mL/min
- CL renal (1 g, mean, part B cohort 11, first 48 hours, dose over 48 hours 8.00 g (8 doses)): 364 mL/min
- CL renal (1 g, mean, part B cohort 11, following the final dose on Day 8, 1.000 g): 93.6 mL/min
- CL renal (1 g, median, part A cohort 8 (elderly), single 1 g, n=5): 66 mL/min
- CL renal (1 g, median, part B cohort 11, following the final dose on Day 8, 1.000 g): 98 mL/min
- CL renal (2 g, mean, part B cohort 9, first 48 hours, dose over 48 hours 2.00 g (8 doses)): 238 mL/min
- CL renal (2 g, mean, part B cohort 12, following the final dose on Day 8, 2.000 g): 108 mL/min
- CL renal (2 g, median, part B cohort 9, first 48 hours, dose over 48 hours 2.00 g (8 doses)): 220 mL/min
- CL renal (2 g, median, part B cohort 12, following the final dose on Day 8, 2.000 g): 109 mL/min
- CL renal (4 g, mean, part A cohort 6, single 4 g, n=4): 132 mL/min
- CL renal (4 g, mean, part B cohort 10, first 48 hours, dose over 48 hours 4.00 g (8 doses)): 272 mL/min
- CL renal (4 g, median, part A cohort 6, single 4 g, n=4): 134 mL/min
- CL renal (8 g, mean, part A cohort 7, single 8 g, n=5): 109 mL/min
- CL renal (8 g, median, part A cohort 7, single 8 g, n=5): 130 mL/min
- CL renal (8 g, median, part B cohort 11, first 48 hours, dose over 48 hours 8.00 g (8 doses)): 392 mL/min
- CL renal (16 g, mean, part B cohort 12, first 48 hours, dose over 48 hours 16.00 g (8 doses)): 307 mL/min
- CL renal (16 g, median, part B cohort 12, first 48 hours, dose over 48 hours 16.00 g (8 doses)): 307 mL/min
- CL renal [1]: 81 mL/min
- Ae, mean [2]: 3057.384 mg
- Ae, median [2]: 3114.55 mg
- Fe, mean [2]: 76.4345%
- Fe, median [2]: 77.8635%
- Ae, mean [3]: 4401.576 mg
- Ae, median [3]: 4705.45 mg
- Fe, mean [3]: 55.0196%
- Fe, median [3]: 58.8180%
- Ae, mean [4]: 582.604 mg
- Ae, median [4]: 573.87 mg
- Fe, mean [4]: 58.2604%
- Fe, median [4]: 57.3870%
- intact drug renally excreted (part A single dose): approximately 50%
- Ae, mean [5]: 953.242 mg
- Ae, median [5]: 1031.41 mg
- Fe, mean [5]: 47.662%
- Fe, median [5]: 51.57%
- Ae, mean [6]: 141.184 mg
- Ae, median [6]: 151.20 mg
- Fe, mean [6]: 56.473%
- Fe, median [6]: 60.48%
- Ae, mean [7]: 2157.551 mg
- Ae, median [7]: 2288.24 mg
- Fe, mean [7]: 53.939%
- Fe, median [7]: 57.21%
- Ae, mean [8]: 337.614 mg
- Ae, median [8]: 329.39 mg
- Fe, mean [8]: 67.523%
- Fe, median [8]: 65.88%
- Ae, mean [9]: 4535.949 mg
- Ae, median [9]: 5204.73 mg
- Fe, mean [9]: 56.699%
- Fe, median [9]: 65.06%
- Ae, mean [10]: 657.112 mg
- Ae, median [10]: 670.87 mg
- Fe, mean [10]: 65.711%
- Fe, median [10]: 67.09%
- Ae, mean [11]: 8856.594 mg
- Ae, median [11]: 7879.32 mg
- Fe, mean [11]: 55.354%
- Fe, median [11]: 49.25%
- Ae, mean [12]: 1386.730 mg
- Ae, median [12]: 1278.52 mg
- Fe, mean [12]: 69.336%
- Fe, median [12]: 63.93%
- Ae [13]: 409.644 (68.690) mg
- Fe [13]: 40.964 (6.869) %
- Ae [1]: 499.627 (95.305) mg
- Fe [1]: 49.963 (9.530) %
- Ae [14]: 426.643 mg
- Fe [14]: 42.664%
- Ae [15]: 3481.42 mg
- Fe [15]: 43.518%
- Ae [16]: 491.58 mg
- Fe [16]: 49.158%
